ChEMBL document CHEMBL4004849, “Tetrazolylmethyl quinolines: Design, docking studies, synthesis, anticancer and antifungal analyses” (2017)
≈ marks a conversion by molar mass, not a printed value.

Key:
Type in all cases: functional
Aspergillus fumigatus [1] = assay: Antifungal activity against Aspergillus fumigatus at 100 ug/ml by disc diffusion method; settings: read-out: IZ
Candida albicans [2] = assay: Antifungal activity against Candida albicans after 24 hrs by serial dilution method
Aspergillus fumigatus [3] = assay: Antifungal activity against Aspergillus fumigatus after 24 hrs by serial dilution method
Candida albicans [4] = assay: Antifungal activity against Candida albicans at 100 ug/ml by disc diffusion method; settings: read-out: IZ

Cc1ccc2nc(Cl)c(Cn3nnc(Cc4ccccc4)n3)cc2c1
zone of inhibition at 100 µg/mL (Aspergillus fumigatus [1]): 12 mm | MIC (Candida albicans [2]): 25 µg/mL (≈ 71.5 µM) | MIC (Aspergillus fumigatus [3]): 25 µg/mL (≈ 71.5 µM) | zone of inhibition at 100 µg/mL (Candida albicans [4]): 12 mm

OC(Cn1cncn1)(Cn1cncn1)c1ccc(F)cc1F [FLUCONAZOLE]
zone of inhibition at 100 µg/mL (Aspergillus fumigatus [1]): 26 mm | MIC (Candida albicans [2]): 30 µg/mL (≈ 98 µM) | MIC (Aspergillus fumigatus [3]): 30 µg/mL (≈ 98 µM) | zone of inhibition at 100 µg/mL (Candida albicans [4]): 24 mm

COc1ccc2nc(Cl)c(Cn3nnc(CSc4ccccc4)n3)cc2c1
zone of inhibition at 100 µg/mL (Aspergillus fumigatus [1]): 20 mm | MIC (Candida albicans [2]): 25 µg/mL (≈ 62.8 µM) | MIC (Aspergillus fumigatus [3]): 10 µg/mL (≈ 25.1 µM) | zone of inhibition at 100 µg/mL (Candida albicans [4]): 16 mm

Clc1nc2ccc(Br)cc2cc1Cn1nnc(CSc2ccccc2)n1
zone of inhibition at 100 µg/mL (Aspergillus fumigatus [1]): 15 mm | MIC (Candida albicans [2]): 25 µg/mL (≈ 56 µM) | MIC (Aspergillus fumigatus [3]): 5 µg/mL (≈ 11.2 µM) | zone of inhibition at 100 µg/mL (Candida albicans [4]): 18 mm
